This is an account of results in US20250295681A1, “CANDIDA ANTIFUNGAL COMPOSITION COMPRISING LIPOTEICHOIC ACID” (SEOUL NATIONAL UNIVERSITY R&DB FOUNDATION, priority 2022, published 2025).

This assay has as its system C. albicans SC5314. Put plainly: Surface adhesion of C. albicans with simultaneous LreLTA and Hsp70 inhibitor VER-155008, crystal violet staining. Conditions: SC5314 1×10^4 CFU/mL; LreLTA 30 μg/mL plus VER-155008 1, 10, 50 and 100 μM simultaneously; 24 hours; FIG. 4. Format: cell-based, Candida albicans. Here is the method: According to previous research, Hsp70 is known to play a role in controlling overall virulence factors and drug resistance in C. albicans, and thus, the inventors of the present disclosure conducted experiments by utilizing VER-155008, which is an Hsp70 inhibitor.
In order to determine the effect of VER-155008 on reducing C. albicans surface adhesion by LreLTA, C. albicans SC5314 strain was cultured in YPD medium and prepared at 1×10^4 CFU/mL, and LreLTA at a single concentration of 30 μg/mL and VER-155008 at concentrations of 1, 10, 50 and 100 μM were simultaneously treated. After culturing for 24 hours, the degree of adhesion maintenance to the surface was compared by 0.1% crystal violet staining.

`N#Cc1ccc(COC[C@H]2O[C@@H](n3c(NCc4ccc(Cl)c(Cl)c4)nc4c(N)ncnc43)[C@H](O)[C@@H]2O)cc1` [VER-155008]: the “effect on the surface adhesion reducing efficacy of LreLTA” value is “the efficacy of reducing the surface adhesion of LreLTA was decreased”.
